Laboratory results published in patent US11951131B2, “Anti-SLAMF7 chimeric antigen receptors” (The United States of America, as represented by the …, priority 2018, dated 2024).

Key:
[1] = system: MM.1S human SLAMF7^+ multiple myeloma solid tumors; assay: MM.1S solid tumor model in NSG mice, anti-tumor efficacy; assay type: in vivo; details: 2 million CAR^+ T cells per mouse, 5 mice per group (FIG. 17)
Experimental: (§1) First, MM.1S human SLAMF7^+ multiple myeloma cell line tumors were established in immunodeficient mice. In this model, the MM.1S cells formed a solid cutaneous mass. Measurable tumors were allowed to develop over 7 days, and then the mice were treated with a single intravenous infusion of MSGV1-IC9-Luc90-CD828Z-transduced human T cells. NSG mice (NOD.Cg-Prkdc^scid Il2rg^tm1Wjl/SzJ) from The Jackson Laboratory, Bar Harbor, Me., were used. Mice received intradermal injections of 4×10^6 MM.1S cells. The cells were suspended in a 1:1 mixture of MATRIGEL™ gelatinous protein mixture (BD Biosciences) and PBS (Phosphate-buffered saline) for injection. Tumors were allowed to grow for 7 days, and then each mouse received a single intravenous infusion of human T cells that were transduced with one of 3 CARs: IC9-Luc90-CD828Z (suicide gene+anti-SLAMF7 CAR), Luc90-CD828Z (anti-SLAMF7 CAR alone), or a negative-control anti-CD19 CAR Hu19-CD828Z. A 4th group was left untreated. All groups included 5 mice. After CAR T-cell infusion, the tumors were measured with calipers every 3 days. The longest length and the length perpendicular to the longest length and the tumor thickness were multiplied together to obtain the tumor volume in mm^3. When the longest length reached 15 mm, mice were sacrificed. Animal studies were approved by the National Cancer Institute Animal Care and Use Committee.
FIGS. 16A-16B show a dose-titration of IC9-Luc90-CD828Z-expressing T cells. In this experiment, immunocompromised NSG mice were injected intradermally with 4×10^6 MM.1S cells to form a solid mass. Mice were then treated with a single infusion of 0.5×10^6, 2×10^6, or 8×10^6, IC9-Luc90-CD828Z-expressing T cells. […] The tumor volume curves end when the first mouse of a group was sacrificed.
MM.'S tumors were established in NSG mice as described in Example 9. FIGS. 17A-17B show results in which mice bearing MM.1S tumors were treated with T cells expressing one of 3 different CARs: IC9-Luc90-CD828Z (suicide gene+anti-SLAMF7 CAR), Luc90-CD828Z (anti-SLAMF7 CAR alone), or a negative-control anti-CD19 CAR Hu19-CD828Z. A 4th group was left untreated in both experiments. All groups included 5 mice. The CARP T cell dose was 2 million CARP T cells per mouse. There were 5 mice in all groups.

T cells only = assay: IFN-gamma ELISA, T cells only (no target cells); assay type: cell-based, human; details: Table E
Experimental: (§2) One-hundred thousand SLAMF7^+ or SLAMF7-negative target cells were combined with 100,000 CAR-transduced T cells in duplicate wells of a 96 well round bottom plate in 200 µL of AIM V™ medium (Invitrogen) plus 5% human serum. The plates were incubated at 37° C. for 18-20 hours. Following the incubation, ELISAs (enzyme-linked immunosorbent assays) for IFNγ were performed by using standard methods.
(§3) The T cells columns indicate whether T cells were transduced with Luc90-CD828Z, Luc63-CD828Z, or were untransduced. The % CAR^+ in Table B-1 was determined by staining the T cells with Protein L. Except for the % CAR^+ column, all values are pg/mL of IFN-gamma. T cells that were either untransduced or transduced with one of the indicated CARs were cultured with target cells overnight and a standard IFN-gamma ELISA was performed on the culture supernatant.
(§4) All values are pg/mL of IFN-gamma. T cells that were either untransduced or transduced with one of the indicated CARs were cultured with target cells overnight, and a standard IFN-gamma ELISA was performed on the culture supernatant.
(§5) The values in the cells are pg/mL of IFN-gamma. T cells that were either untransduced or transduced with one of the indicated CARs were cultured with target cells overnight, and a standard IFN-gamma ELISA was performed on the culture supernatant. The concentrations of 0, 50, or 200 ng/mL at the top of each column indicates the concentration of soluble SLAMF7 added to all T cell plus target cell overnight cultures in that column. The soluble SLAMF7 was added at the beginning of the overnight culture.

MM.1S = assay: IFN-gamma ELISA, CAR T cells with MM.1S target cells; assay type: cell-based, human; details: Table E
From the text: (§6) MM.1S is a SLAMF7^+ multiple myeloma cell line that was obtained from American Type Culture Collection (ATCC). A549 is a BCMA-negative lung cancer cell line (ATCC). TC71 is a BCMA-negative sarcoma cell line. CCRF-CEM, 293T, and A549 are SLAMF7-negative cell lines (ATCC). COL0207, HepG2, U251, Panc10.05, and TC71 are […] that were kind gifts from Dr. Steven Rosenberg, National Cancer Institute. SLAMF7-K562 are K562 cells (ATCC) which were transduced with the gene for full-length SLAMF7. SLAMF7-RPMI are RPMI8226 cells (ATCC) which were transduced with the gene for full-length SLAMF7. NGFR-K562 are K562 cells which were transduced with the gene for low-affinity nerve growth factor (Kochenderfer et al., J. Immunother., 32(7): 689-702 (2009)). All of the human samples mentioned were obtained from patients enrolled in IRB-approved clinical trials at the National Cancer Institute.
as §2, §4

SLAMF7^+ MM.1S cells = assay: Cytotoxicity assay (4 hours, relative to CCRF-CEM cells); assay type: cell-based, human; details: MM.1S relative to control CCRF-CEM cells (FIG. 8A)
Experimental: Cytotoxicity assays were conducted as previously described (see Kochenderfer et al., J. Immunother., 32(7): 689-702 (2009)). Cytotoxicity was measured by comparing survival of SLAMF7^+ target cells relative to the survival of negative-control CCRF-CEM cells. Both of these cell types were combined in the same tubes with CAR-transduced T cells. CCRF-CEM negative control cells were labeled with the fluorescent dye 5-(and -6)-(((4-chloromethyl)benzoyl)amino) tetramethylrhodamine (CMTMR) (Invitrogen), and SLAMF7^+ target cells were labeled with CFSE. Cocultures were set up in sterile 5 mL test tubes (BD Biosciences) in duplicate at multiple T cell to target cell ratios. The target cells contained in the tubes were 50,000 SLAMF7^+ target cells along with 50,000 CCRF-CEM negative-control cells. The cultures were incubated for 4 hours at 37° C. Immediately after the incubation, 7AAD (7-amino-actinomycin D) (BD Biosciences) was added, and flow cytometry acquisition was performed. For each T cell plus target-cell culture, the percent survival of SLAMF7^+ target cells was determined by dividing the percent live SLAMF7^+ cells by the percent live CCRF-CEM negative control cells. The corrected percent survival of SLAMF7^+ target cells was calculated by dividing the percent survival of SLAMF7^+ target cells in each T cell plus target cell culture by the ratio of the percent live SLAMF7^+ target cells to percent live CCRF-CEM negative-control cells in tubes containing only SLAMF7^+ target cells and CCRF-CEM cells without effector T cells. This correction was necessary to account for variation in the starting cell numbers and for spontaneous target cell death. Cytotoxicity was calculated as follows: the percent cytotoxicity of […] target cells=100−corrected percent survival of SLAMF7^+ target cells.

CCRF-CEM = assay: IFN-gamma ELISA, CAR T cells with CCRF-CEM target cells; assay type: cell-based, human; details: Table E
From the text: as §6, §2, §4

NGFR-K562 = assay: IFN-gamma ELISA, CAR T cells with NGFR-K562 target cells; assay type: cell-based, human; details: Table E
From the text: as §6, §2, §3, §4, §5

SLAMF7-K562 target cells = assay: CFSE proliferation assay; assay type: cell-based, human; details: SLAMF7-K562 versus NGFR-K562 target cells, 4 days (FIGS. 8B, 8C)
From the text: Cocultures were set up in 24-well plates. Target cells included in cocultures were either 0.5×10^6 irradiated SLAMF7-K562 cells or 0.5×10^6 irradiated NGFR-K562 cells. The cocultures also included 1×10^6 T cells from cultures that had been transduced with either […]. The T cells were labeled with carboxy fluorescein diacetate succinimidyl ester (CFSE, Invitrogen) as previously described. The medium used in the cocultures was AIM V™ (Invitrogen) plus 5% human AB serum. IL-2 was not added to the medium. Four days after initiation, the live cells in each coculture were counted with trypan blue for dead cell exclusion, and flow cytometry was performed by Protein L staining.

SLAMF7-K562 = assay: IFN-gamma ELISA, CAR T cells cultured overnight with SLAMF7-K562 target cells; assay type: cell-based, human; details: Table E; overnight culture
From the text: as §6, §2, §3, §4

[2] = system: IC9-Luc90-CD828Z CAR T cells; assay: AP1903 abrogation of CAR T-cell activity in MM.1S tumor-bearing mice; assay type: in vivo, NSG mice
Experimental: as §1
MM.1S tumors were established in NSG mice as described in Example 9. The mice were treated with 2×10^6 IC9-Luc90-CD828Z T cells. The mice received 5 mg/kg of AP1903 intraeritoneally for either 3 days or 12 days after the CAR T-cell infusion. […] Also levels of IC9-Luc90-CD828Z CART cells in the mice receiving AP1903 were reduced as compared to the mice receiving the vehicle.

IC9-expressing T cells = assay: 6-hour and 48-hour post-rimiducid T cell death analysis; assay type: cell-based, human; details: for elimination of transduced T cells by AP1903: 1, 10 or 100 ng/mL; for annexin V staining of residual CAR^+ T cells: AP1903 6 hours; for annexin V staining of residual CAR+ cells: AP1903 48 hours
Experimental: On day 8 of culture, 1 million T cells from cultures that were either untransduced or transduced with one of the anti-SLAMF7 CARs cells were suspended at 1×10^6 T cells/mL in AIM V™ media (Invitrogen) plus 300 IU of interleukin-2. One million cells were added to each of 4 wells of a 12-well plate. A different concentration of AP1903 (MedChem Express, Princeton, N.J.) from was added to each well. AP1903 is also referred to as rimiducid. The concentrations of AP1903 evaluated were: 0, 1, 10, or 100 ng/mL.
Six hours and 48 hours after these cultures were set up, the cells were counted, washed, and stained with Protein L as described above. Next, the cells were washed twice with PBS, re-suspended in Annexin V binding buffer (BD Biosciences), and incubated with allophycocyanin-conjugated Annexin V (BD Biosciences) and 7AAD (BD Biosciences) for 15 minutes (mins) at room temp. The cells were immediately analyzed by flow cytometry.

[3] = T cells transduced with IC9-Luc90-CD828Z
[4] = T cells transduced with Luc90-CD828Z-IC9

Hu19-CD828Z: negative-control anti-CD19 CAR [reference compound]
anti-tumor activity [1]: progressive tumors

Luc90-CD828Z-IC9: CAR plus suicide gene construct (SEQ ID NO: 30): Luc90-CD828Z, T2A, IC9 suicide gene 3′ to the CAR
IFN-gamma, T-cells Alone (T cells only): 39 pg/mL
IFN-gamma, MM.1S (MM.1S): 1333 pg/mL
killing of SLAMF7^+ target cells (SLAMF7^+ MM.1S cells): specifically killed the SLAMF7^+ MM.1S cells
IFN-gamma, CCRF-CEM (CCRF-CEM): 42 pg/mL
IFN-gamma, NGFR-K562 (NGFR-K562): 33 pg/mL
proliferation (CFSE dilution) (SLAMF7-K562 target cells): proliferated more
IFN-gamma, SLAMF7-K562 (SLAMF7-K562): 2249 pg/mL

CC[C@H](C(=O)N1CCCC[C@H]1C(=O)O[C@H](CCc1ccc(OC)c(OC)c1)c1cccc(OCC(=O)NCCNC(=O)COc2cccc([C@@H](CCc3ccc(OC)c(OC)c3)OC(=O)[C@@H]3CCCCN3C(=O)[C@@H](CC)c3cc(OC)c(OC)c(OC)c3)c2)c1)c1cc(OC)c(OC)c(OC)c1 [AP1903]
tumor outcome in mice receiving AP1903 after CAR T cells ([2]; 2×10^6 IC9-Luc90-CD828Z T cells, AP1903 5 mg/kg intraperitoneally (FIG. 18)): progressive tumors
levels of IC9-Luc90-CD828Z CAR T cells in mice ([2]; AP1903 5 mg/kg compared to vehicle): reduced
elimination of transduced T cells by AP1903 (IC9-expressing T cells; T cells transduced with IC9-Luc90-CD828Z, 6 hours): most transduced cells exposed to either 1, 10, or 100 ng/mL of AP1903 were eliminated
elimination of transduced T cells by AP1903 (IC9-expressing T cells; T cells transduced with IC9-Luc90-CD828Z, 48 hours): most transduced cells exposed to either 1, 10, or 100 ng/mL of AP1903 were eliminated
annexin V staining of residual CAR^+ T cells (IC9-expressing T cells; [3]): most residual CAR^+ T cells in the AP1903-treated cultures were annexin V^+
annexin V staining of residual CAR+ cells (IC9-expressing T cells; [3]): most residual CAR+ cells were annexin V^+
elimination of transduced T cells by AP1903 (IC9-expressing T cells; T cells transduced with Luc90-CD828Z-IC9, 6 hours): most transduced cells exposed to either 1, 10, or 100 ng/mL of AP1903 were eliminated
elimination of transduced T cells by AP1903 (IC9-expressing T cells; T cells transduced with Luc90-CD828Z-IC9, 48 hours): most transduced cells exposed to either 1, 10, or 100 ng/mL of AP1903 were eliminated
annexin V staining of residual CAR^+ T cells (IC9-expressing T cells; [4]): most residual CAR^+ T cells in the AP1903-treated cultures were annexin V^+
annexin V staining of residual CAR+ cells (IC9-expressing T cells; [4]): most residual CAR+ cells were annexin V^+
dependence of elimination on AP1903 concentration (IC9-expressing T cells; clinically-relevant range of concentrations tested (1-100 ng/mL)): did not depend on the concentration of AP1903
